Source: patent US10434132B2, “Galactolipids-enriched plant extracts and the uses thereof” (ACADEMIA SINICA, priority 2013, dated 2019)

How the values were obtained:
[1] = test system: hypoxia inducible factor-1α (HIF-1α); experiment: HIF-1α expression in LPS-challenged mice; type: in vivo; conditions: FIG. 9A, 9C; pre-treatment before LPS
Protocol: (§1) The plant components or the drugs were all injected an hour before administration of LPS. Another animal group was only treated with 25 mg/kg dLGG (dLGG 25 only). All groups were sacrificed after 24 hours and blood samples were collected by retro-orbital bleeding before scarification of mice and organ tissues were collected immediately.

B16 melanoma cells = experiment: Depigmentation assay in B16 melanoma cells; type: cell-based; conditions: FIG. 10B; 45 μM, vs vehicle control
Protocol: B16 melanoma cell line was obtained from ATCC (Manassas, Va.) and grown in RPMI medium 1640 (Gibco/BRL) supplemented with 10% heat-inactivated fetal bovine serum, 100 unit/mL penicillin and 100 μg/mL streptomycin, at 37° C. in a humidified 5% CO2 incubator.
B16 melanoma cell line was plated on to 10 cm culture dishes at an initial density of 1×10^5 cells dish^−1 and then cultured under the same condition described above. After 12 hours of seeding, the cells were treated by vehicle DMSO, kojic acid (KA), ethyl acetate (EA) fractions of CR's water and ethanolic extractions (Hou et al., 2007) for 72 hours. These cells were harvested by centrifuge and visually evaluated the color of these cell pellets. In another experiment, depigmentation effect of the single compound dLGG was observed and evaluated at different time points with the same procedure.

tyrosinase = experiment: Western blot of tyrosinase expression in B16 melanoma cells; type: cell-based; conditions: FIG. 10C, 45 μM dLGG
Protocol: (§2) The cellular proteins were produced according to previously published method (Chiang et al., 2005). Protein content was measured by Bradford method (Bio-Rad).
(§3) Molecular mechanism of dLGG depigmentation effect was further studied. Western blotting assay was preceded for testing the effect of dLGG on tyrosinase and MITF expression.

MITF = experiment: Western blot of MITF expression in B16 melanoma cells; type: cell-based; conditions: FIG. 10C, 45 μM dLGG
Protocol: as §2, §3

[2] = dLGG only treatment of mice without LPS challenge; type: in vivo; conditions: dLGG 25 mg/kg only, no LPS, 24 hours
Protocol: as §1
Moreover, one group of mice was treated with dLGG (25 mg/kg) without LPS challenge. All the mice were sacrificed after 24 hours. Mice sera were collected to measure and compare the concentration of IL-6 and TNF-α, and the levels of AST and ALT.

PPAR-δ = PPAR-δ expression in LPS-challenged mice; type: in vivo; conditions: FIG. 9B, 9D; pre-treatment before LPS
Protocol: as §1

LPS-challenged mice = experiment: LPS-induced acute inflammation and sepsis in mice; type: in vivo
Protocol: as §1
(§4) Liver, lung and kidney tissues were fixed in 10% buffered formalin then it were embedded into paraffin. The paraffin-embedded tissues were sliced (8-μm) and stained by hematoxylin and eosin (H&E). Besides, sections of paraffin-embedded liver and lung (4-μm for thickness) were heat immobilized and deparaffinized by use of xylene and rehydrated in a graded series of ethanol with a final wash in distilled water, and finally soaked into decloaking chamber (Biocare Medical) containing Target Retrieval Solution (DakoCytomation) for antigen retrieval.
Immunohistochemistry with liver, lung and kidney tissues were done by incubating the samples into F4/80 primary antibody for overnight respectively. After subsequent washing, each of the samples was incubated using florescent-labeled secondary antibody. Florescent images of the macrophage cell infiltration (positive F4/80 stained cell) were captured by AxioVision software (Carl Zeiss MicroImaging, Inc.) and then analyzed.
(§5) Blood samples of tested mice were centrifuged under 4° C., 1400× g for 15 minutes to separate serum from blood. Commercial kit purchased from Randox Laboratories (UK) was used to determine the activity of aspartate aminotransferase (AST) and alanine aminotransferase (ALT) in serum supernatants.
Serum levels of interleukin (IL-6) and tumor necrosis factor-alpha (TNF-α) were determined using a commercial kit from eBioscience.

[3] = test system: LPS/D-GaIN-challenged mice; experiment: LPS/D-GaIN-induced acute fulminant hepatitis in mice; type: in vivo
Protocol: The hepatoprotective effect in live body of compound dLGG isolated from Crassocephalum rabens (Asteraceae) in LPS/D-GaIN-induced fulminant hepatitis were investigated and compared with the hepatoprotective drug, silymarin (SM). Mice were randomly separated into four groups (n=6 per group) for treatments: vehicle; LPS/D-GaIN; 50 mg/kg of silymarin (Post-SM50); and 10 mg/kg dLGG (post-dLGG10), and all treatments were given intraperitoneally. One hour after the mice treated with 500 ng LPS and 250 μL saline containing 25 mg D-GaIN (Huang et al., 2012), the dLGG and silymarin were given intraperitoneally. Besides, the other two groups of mice were treated dLGG or silymarin continuously for three days to perform the protection effect of dLGG against LPS/D-GaIN induced fulminate hepatitis. Eight hours after LPS/D-GaIN injection, blood samples were collected through retro-orbital bleeding, and then all mice were sacrificed to collect blood samples and liver tissues.
as §4
In situ detection of apoptotic cells was conducted according to the manufacturer's protocol (Chemicon). It is using terminal deoxynucleotidyl transferase to work on nucleotide sequence to […] for terminal deoxynucleotidyl transferase-mediated dUTP nick end labeling. Finally, AxioVision software (Carl Zeiss MicroImaging, Inc.) was used to analyze the number of TUNEL-positive cells.
as §5

[4] = high dose (CR-EA 50 mg/kg, dLGG 25 mg/kg) 1 hour before 10 mg/kg LPS, serum at 24 hours
[5] = FIG. 5A, dLGG 10 mg/kg or SM 50 mg/kg i.p. 1 hour after LPS/D-GaIN, blood at 8 hours

## CC/C=C\C/C=C\C/C=C\CCCCCCCC(=O)OC[C@H](CO[C@@H]1O[C@H](CO)[C@H](O)[C@H](O)[C@H]1O)OC(=O)CCCCCCC/C=C\C/C=C\C/C=C\CC [dLGG, 1,2,di-O-α-linolenoyl-3-O-β-galactopyranosyl-sn-glycerol]
[1]
  HIF-1α expression: down-regulated
B16 melanoma cells
  depigmentation of B16 melanoma cells at different time points: significantly depigmentation in a time-dependent manner
tyrosinase
  expression of tyrosinase (western blot): inhibit the expression
MITF
  expression of MITF (western blot): inhibit the expression
[2]
  harm to mice: harmfulless to mice
PPAR-δ
  PPAR-δ expression: down-regulated
LPS-challenged mice; FIG. 8A, pre-treated 1 hour before LPS, simvastatin 10 mg/kg
  sepsis-induced acute kidney injury, renal histology (H&E): remarkably protective effect
LPS-challenged mice; FIG. 8C, pre-treated 1 hour before LPS, simvastatin 10 mg/kg
  infiltration and activation of macrophages (F4/80 immunohistology staining): decreased infiltration and activation of macrophages
LPS-challenged mice; dLGG 25 mg/kg after LPS-challenge, data not shown
  damages in mice liver, lung and kidney caused by LPS: effectively reduce damages
LPS-challenged mice; [4]
  serum ALT decrease: 2.3 times
  serum AST decrease: 1.8 times
  serum IL-6 decrease: 3.5 times
  serum TNF-α decrease: 3.0 times
[3]; [5]
  serum ALT level: significantly inhibit
  serum AST level: significantly inhibit
[3]; FIG. 5B, dLGG 10 mg/kg or SM 50 mg/kg i.p. 1 hour after LPS/D-GaIN
  liver histology H&E (infiltration of inflammatory cells into liver lobules, tissue destruction, erythrocyte influx): attenuated
[3]; FIG. 5C, dLGG 10 mg/kg i.p. after LPS/D-GaIN
  numbers of apoptosis cells, TUNEL positive-stained cells in liver tissue: significantly decreased
[3]; pre-treated 1 or 10 mg/kg 1 hour before LPS/D-GaIN-challenge, data not shown
  protection against LPS/D-GaIN-induced fulminant hepatic failure: significant protection effect
